In experiment [1] the target is T1, angiotensin I-converting enzyme (ACE) (Homo sapiens, UniProt P12821). Kind of experiment: ACE inhibitory activity assay (Dojindo ACE Kit). In kind it is biochemical. Set-up: purchased Dojindo Laboratories, Kumamoto, Japan. The settings on record: synthetic peptides with the sequences identified in <1 kDa fraction; triplicate experiments. On the procedure:
ACE inhibitory activity was measured using the Dojindo ACE Kit-WET kit (Dojindo Laboratories, Kumamoto, Japan), according to the manufacturer’s instructions. The ACE-inhibitory activity was calculated as follows: ACE inhibitory activity (%)=Acontrol−Asample/Acontrol−Ablank×100% where Acontrol is the absorbance of the positive control, Ablank is the absorbance of the blank containing distilled water, and Asample is the absorbance of the sample. The IC50 value was determined as the concentration of inhibitor required to inhibit 50% of the ACE activity.
Target sequence in this assay (P12821 30-1306, species assumed): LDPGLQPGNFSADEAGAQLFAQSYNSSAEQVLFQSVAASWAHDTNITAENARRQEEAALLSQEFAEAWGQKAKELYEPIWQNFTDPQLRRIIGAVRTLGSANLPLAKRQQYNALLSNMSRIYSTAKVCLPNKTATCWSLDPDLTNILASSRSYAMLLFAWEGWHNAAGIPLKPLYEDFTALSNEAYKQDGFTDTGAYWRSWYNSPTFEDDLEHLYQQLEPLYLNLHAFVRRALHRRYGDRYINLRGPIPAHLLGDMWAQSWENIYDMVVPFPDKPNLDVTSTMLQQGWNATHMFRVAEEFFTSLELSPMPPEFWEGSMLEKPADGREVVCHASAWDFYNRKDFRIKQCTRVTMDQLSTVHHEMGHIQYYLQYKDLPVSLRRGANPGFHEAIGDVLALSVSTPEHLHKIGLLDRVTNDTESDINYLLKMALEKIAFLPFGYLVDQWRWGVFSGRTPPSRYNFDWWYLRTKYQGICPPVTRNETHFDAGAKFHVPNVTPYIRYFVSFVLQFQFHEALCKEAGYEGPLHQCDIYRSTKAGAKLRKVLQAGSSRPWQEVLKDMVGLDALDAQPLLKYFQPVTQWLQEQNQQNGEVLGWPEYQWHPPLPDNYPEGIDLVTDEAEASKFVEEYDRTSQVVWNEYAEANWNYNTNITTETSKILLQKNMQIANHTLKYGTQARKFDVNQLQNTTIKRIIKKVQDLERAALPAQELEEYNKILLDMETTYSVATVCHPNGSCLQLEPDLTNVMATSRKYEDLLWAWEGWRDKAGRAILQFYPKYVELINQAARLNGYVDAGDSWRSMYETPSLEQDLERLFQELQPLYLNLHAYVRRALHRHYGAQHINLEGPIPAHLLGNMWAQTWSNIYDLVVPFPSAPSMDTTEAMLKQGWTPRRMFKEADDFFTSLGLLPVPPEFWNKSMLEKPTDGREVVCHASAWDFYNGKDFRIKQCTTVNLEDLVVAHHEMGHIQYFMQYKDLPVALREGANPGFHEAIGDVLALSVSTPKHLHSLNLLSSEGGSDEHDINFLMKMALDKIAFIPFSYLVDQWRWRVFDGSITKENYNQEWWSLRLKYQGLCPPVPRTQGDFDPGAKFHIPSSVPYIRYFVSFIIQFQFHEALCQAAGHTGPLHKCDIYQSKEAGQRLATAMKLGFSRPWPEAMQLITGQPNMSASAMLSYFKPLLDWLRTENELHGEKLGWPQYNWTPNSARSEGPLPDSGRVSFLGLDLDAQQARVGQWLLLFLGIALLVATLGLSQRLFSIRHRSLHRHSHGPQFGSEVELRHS

Experiment [2] deals with T1, angiotensin I-converting enzyme (ACE).
Target sequence in this assay (P12821 30-1256): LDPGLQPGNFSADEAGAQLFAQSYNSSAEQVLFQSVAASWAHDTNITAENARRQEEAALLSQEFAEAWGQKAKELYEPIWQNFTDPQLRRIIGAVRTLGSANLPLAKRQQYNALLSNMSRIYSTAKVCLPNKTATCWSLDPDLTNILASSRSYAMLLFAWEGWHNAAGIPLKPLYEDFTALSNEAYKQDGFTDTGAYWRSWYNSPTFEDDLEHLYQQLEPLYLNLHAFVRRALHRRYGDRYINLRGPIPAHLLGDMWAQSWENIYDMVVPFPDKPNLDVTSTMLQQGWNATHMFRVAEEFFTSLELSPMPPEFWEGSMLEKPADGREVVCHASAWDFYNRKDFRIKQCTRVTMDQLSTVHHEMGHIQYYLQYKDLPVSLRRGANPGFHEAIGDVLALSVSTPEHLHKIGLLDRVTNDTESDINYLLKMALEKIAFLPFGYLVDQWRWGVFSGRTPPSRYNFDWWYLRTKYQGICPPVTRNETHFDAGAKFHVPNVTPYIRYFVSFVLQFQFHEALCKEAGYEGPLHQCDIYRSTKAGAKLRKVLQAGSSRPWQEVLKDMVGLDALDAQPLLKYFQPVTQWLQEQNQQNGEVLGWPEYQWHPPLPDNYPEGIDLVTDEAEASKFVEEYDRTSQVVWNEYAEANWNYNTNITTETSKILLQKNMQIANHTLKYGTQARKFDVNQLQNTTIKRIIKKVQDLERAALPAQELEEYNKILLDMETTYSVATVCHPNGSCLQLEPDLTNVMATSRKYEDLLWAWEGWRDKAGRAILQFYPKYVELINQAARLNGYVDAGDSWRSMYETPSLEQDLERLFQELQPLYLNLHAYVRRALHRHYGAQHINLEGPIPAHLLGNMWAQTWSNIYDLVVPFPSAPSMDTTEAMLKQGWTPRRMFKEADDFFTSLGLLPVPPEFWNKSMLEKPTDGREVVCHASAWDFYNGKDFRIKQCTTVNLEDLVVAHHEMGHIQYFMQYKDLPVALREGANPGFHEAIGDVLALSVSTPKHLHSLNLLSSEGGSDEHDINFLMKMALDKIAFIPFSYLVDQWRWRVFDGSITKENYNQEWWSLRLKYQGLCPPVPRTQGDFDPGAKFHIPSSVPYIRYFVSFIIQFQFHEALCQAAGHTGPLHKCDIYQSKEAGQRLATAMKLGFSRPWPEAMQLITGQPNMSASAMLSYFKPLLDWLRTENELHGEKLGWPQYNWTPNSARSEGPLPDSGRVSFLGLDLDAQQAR

Ends that are not written are not given here. Peptide text beside a SMILES is read from it.

For orientation: IC50 means the point on the concentration scale where inhibition reaches its midpoint. `CC(C)C[C@H](NC(=O)[C@@H](NC(=O)[C@@H](N)CCCCN)C(C)C)C(=O)N[C@@H](Cc1c[nH]cn1)C(=O)O` [GVP-2, KVLH] (H-KVLH-OH): 162 ± 2 nM corresponded to half-maximal inhibition in experiment [1] (IC50).
Same read-out and setting: with KLLWNGKM [GVP-10, KLLWNGKM] the figure was 7 ± 2 nM; with ALRPKF [GVP-7, ALRPKF], 24 ± 17 nM.
Still for that read-out and setting: for `CC(C)C[C@H](NC(=O)[C@@H](N)CCCCN)C(=O)N[C@@H](CCC(N)=O)C(=O)N[C@@H](CCC(=O)O)C(=O)O` [GVP-1, KLQE] (H-KLQE-OH) the value was 2960 ± 165 nM; for PGLADMR [GVP-8, PGLADMR], 513 ± 2 nM.
In turn, YALPHAL [GVP-11, YALPHAL] displayed an IC50 in experiment [1] of 795 ± 15 nM.
The same measure, in the same setting: for `CC(C)C[C@H](N)C(=O)N[C@H](C(=O)N[C@@H](CCCNC(=N)N)C(=O)O)C(C)C` [GVP-4, LVR] (H-Leu-Val-Arg-OH; N-terminus and C-terminus assumed) the value was 67 ± 5 nM; for `CC(C)C[C@H](NC(=O)[C@H](Cc1c[nH]cn1)NC(=O)[C@@H](NC(=O)[C@@H](N)CCCCN)C(C)C)C(=O)O` [GVP-3, KVHL] (H-KVHL-OH), 292 ± 13 nM; for `CC(C)C[C@H](NC(=O)[C@@H](N)CC(C)C)C(=O)N[C@@H](CCCNC(=N)N)C(=O)O` [GVP-9, LLR], 435 ± 7 nM.
On the same count and under the same terms, for PSLVG [GVP-5, PSLVG] the value was 582 ± 8 nM; for `CC(C)C[C@H](NC(=O)[C@H](CO)NC(=O)[C@H](CC(N)=O)NC(=O)[C@@H](N)CC(C)C)C(=O)O` [GVP-6, LNSL] (H-LNSL-OH; N-terminus and C-terminus assumed), 1390 ± 11 nM.
PSLVG [G. vrijenhoeki peptide (GVP)-5] yielded an IC50 of ACE inhibitory activity (enzyme activity, Dojindo ACE kit, synthetic peptide) in experiment [2] of 582 nM.
The same measure, in the same setting: for LNSL [G. vrijenhoeki peptide (GVP)-6] the value was 1390 nM; for PGLADMR [G. vrijenhoeki peptide (GVP)-8], 513 nM.
Turning to KVHL [G. vrijenhoeki peptide (GVP)-3], the IC50 of ACE inhibitory activity (enzyme activity, Dojindo ACE kit, synthetic peptide) in experiment [2] was found to be 292 nM.
The same measure, in the same setting: with KLLWNGKM [G. vrijenhoeki peptide (GVP)-10] the figure was 7 nM; with YALPHAL [G. vrijenhoeki peptide (GVP)-11], 795 nM; with ALRPKF [G. vrijenhoeki peptide (GVP)-7], 24 nM.
KVLH [G. vrijenhoeki peptide (GVP)-2] showed an IC50 of ACE inhibitory activity (enzyme activity, Dojindo ACE kit, synthetic peptide) in experiment [2] of 162 nM.
The same measure, in the same setting: for KLQE [G. vrijenhoeki peptide (GVP)-1] the value was 2960 nM.

These data come from PMC10456528, “Purification and Molecular Docking Study on the Angiotensin I-Converting Enzyme (ACE)-Inhibitory Peptide Isolated from Hydrolysates of the Deep-Sea Mussel Gigantidas vrijenhoeki” (Marine Drugs, 2023).
